According to patent US12404241B2 (Celgene Corporation, priority 2018, dated 2025):
Counter-ions that a name gives are not always drawn.

Biological target: T1, AR (Homo sapiens, UniProt P10275)
T1 construct: endogenous in cells; host or cells: VCaP cells
T1 sequence (P10275 1-920): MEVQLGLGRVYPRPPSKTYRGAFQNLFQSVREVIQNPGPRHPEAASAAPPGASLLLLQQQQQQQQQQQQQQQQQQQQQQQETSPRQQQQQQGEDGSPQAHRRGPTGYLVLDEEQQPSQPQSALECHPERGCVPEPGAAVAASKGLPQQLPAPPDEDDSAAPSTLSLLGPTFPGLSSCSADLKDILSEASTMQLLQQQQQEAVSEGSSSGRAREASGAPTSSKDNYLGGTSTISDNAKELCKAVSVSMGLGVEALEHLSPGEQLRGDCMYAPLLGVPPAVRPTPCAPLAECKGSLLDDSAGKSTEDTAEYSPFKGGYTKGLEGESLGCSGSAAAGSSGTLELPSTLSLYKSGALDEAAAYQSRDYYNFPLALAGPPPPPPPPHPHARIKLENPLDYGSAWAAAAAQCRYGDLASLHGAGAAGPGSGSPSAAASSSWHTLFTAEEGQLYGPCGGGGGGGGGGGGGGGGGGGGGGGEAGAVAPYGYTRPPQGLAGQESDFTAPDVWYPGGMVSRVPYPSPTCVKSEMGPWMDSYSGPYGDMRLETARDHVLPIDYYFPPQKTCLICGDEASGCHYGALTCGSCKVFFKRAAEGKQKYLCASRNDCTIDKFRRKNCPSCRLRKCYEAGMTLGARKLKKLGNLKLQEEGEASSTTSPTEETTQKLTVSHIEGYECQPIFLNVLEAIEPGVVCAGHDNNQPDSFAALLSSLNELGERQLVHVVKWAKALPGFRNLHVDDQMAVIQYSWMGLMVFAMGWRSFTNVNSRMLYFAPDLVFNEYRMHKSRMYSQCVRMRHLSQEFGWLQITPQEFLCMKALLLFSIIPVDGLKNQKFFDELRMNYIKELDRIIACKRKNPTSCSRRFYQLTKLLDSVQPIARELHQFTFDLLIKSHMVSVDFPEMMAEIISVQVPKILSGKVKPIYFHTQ
Assay: VCAP AR Degradation Assay
Format: cell-based
Settings: for Y (AR degradation efficiency, % of DMSO control): class symbols *; for DC50: class symbols A-C, read-out: DC50
Procedure, shortened: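 Compounds were plated as 10-point 1:3 series reaching 5 μM final, then VCaP cells were seeded onto them and incubated 24 h at 37 °C. Cells were lysed cold, and total AR was measured by sandwich ELISA relative to 0.1% DMSO wells.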

Question: With CCc1cc(N2C(=S)N(c3cnc(C#N)c(C(F)(F)F)c3)C(=O)C23CCC3)ccc1OCCN1C[C@H]2CC[C@@H]1CN2CC(=O)Nc1cccc(NC2CCC(=O)NC2=O)c1 (stereo partly drawn) [Example 182, 2-((1R,4R)-5-(2-(4-(7-(6-cyano-5-(trifluoromethyl)pyridin-3-yl)-8-oxo-6-thioxo-5,7-diazaspiro[3.4]octan-5-yl)-2-ethylphenoxy)ethyl)-2,5-diazabicyclo[2.2.2]octan-2-yl)-N-(3-(2,6-dioxopiperidin-3-ylamino)phenyl)acetamide] as the compound, how does the “Y (AR degradation efficiency, % of DMSO control)” value read?
Answer: The value was “** (25%<Y<=35%)”.

Question: What about the DC50 of the same compound?
Answer: The DC50 was 0.1 to 0.5 µM.

Question: For C[C@@H]1CN(CCOc2ccc(N3C(=S)N(c4cnc(C#N)c(C(F)(F)F)c4)C(=O)C34CCC4)cc2C2CC2)C[C@H](C)N1CC(=O)Nc1cc(Cl)cc(NC2CCC(=O)NC2=O)c1 (stereo partly drawn) [Example 215, N-(3-chloro-5-(2,6-dioxopiperidin-3-ylamino)phenyl)-2-((2S,6R)-4-(2-(4-(7-(6-cyano-5-(trifluoromethyl)pyridin-3-yl)-8-oxo-6-thioxo-5,7-diazaspiro[3.4]octan-5-yl)-2-cyclopropylphenoxy)ethyl)-2,6-dimethylpiperazin-1-yl)acetamide], which “Y (AR degradation efficiency, % of DMSO control)” value is on record?
Answer: The value was “* (0<Y<=25%)”.

Question: What about the DC50 of the same compound?
Answer: The DC50 was under 0.1 µM.

Question: For CCc1cc(N2C(=S)N(c3ccc(C#N)c(C(F)(F)F)c3)C(=O)C2(C)C)ccc1OCCN1C[C@@H](C)N(CC(=O)Nc2cccc(NC3CCC(=O)NC3=O)c2)[C@H](C)C1 (stereo partly drawn) [Example 129, 2-((2R,6R)-4-(2-(4-(3-(4-cyano-3-(trifluoromethyl)phenyl)-5,5-dimethyl-4-oxo-2-thioxoimidazolidin-1-yl)-2-ethylphenoxy)ethyl)-2,6-dimethylpiperazin-1-yl)-N-(3-(2,6-dioxopiperidin-3-ylamino)phenyl)acetamide], which “Y (AR degradation efficiency, % of DMSO control)” value is on record?
Answer: The value was “* (0<Y<=25%)”.

Question: And the DC50?
Answer: The DC50 was under 0.1 µM.

Question: With CCc1cc(N2C(=S)N(c3ccc(C#N)c(C(F)(F)F)c3)C(=O)C2(C)C)ccc1OCCN1CCN(CC(=O)Nc2cc(Cl)cc(NC3CCC(=O)NC3=O)c2)C(C)(C)C1 (stereo not drawn) [Example 79, N-(3-chloro-5-(2,6-dioxopiperidin-3-ylamino)phenyl)-2-(4-(2-(4-(3-(4-cyano-3-(trifluoromethyl)phenyl)-5,5-dimethyl-4-oxo-2-thioxoimidazolidin-1-yl)-2-ethylphenoxy)ethyl)-2,2-dimethylpiperazin-1-yl)acetamide] as the compound, how does the “Y (AR degradation efficiency, % of DMSO control)” value read?
Answer: The value was “** (25%<Y<=35%)”.

Question: And the DC50?
Answer: The DC50 was under 0.1 µM.

Question: For C[C@H](C(=O)Nc1cccc(NC2CCC(=O)NC2=O)c1)N1CCN(CCOc2ccc(N3C(=S)N(c4ccc(C#N)c(C(F)(F)F)c4)C(=O)C3(C)C)cc2Cl)CC1 (stereo partly drawn) [Example 25, hydrochloride], which “Y (AR degradation efficiency, % of DMSO control)” value is on record?
Answer: Its value is “*** (35%<Y<50%)”.

Question: What about the DC50 of the same compound?
Answer: The DC50 was under 0.1 µM.

Question: CC(C)c1cc(N2C(=S)N(c3cnc(C#N)c(C(F)(F)F)c3)C(=O)C2(C)C)ccc1OCCN1C[C@@H](C)N(CC(=O)Nc2cccc(NC3CCC(=O)NC3=O)c2)C[C@H]1C (stereo partly drawn) [Example 192, 2-((2R,5R)-4-(2-(4-(3-(6-cyano-5-(trifluoromethyl)pyridin-3-yl)-5,5-dimethyl-4-oxo-2-thioxoimidazolidin-1-yl)-2-isopropylphenoxy)ethyl)-2,5-dimethylpiperazin-1-yl)-N-(3-(2,6-dioxopiperidin-3-ylamino)phenyl)acetamide] was tested. Which “Y (AR degradation efficiency, % of DMSO control)” value did it give?
Answer: Its value is “** (25%<Y<=35%)”.

Question: And the DC50?
Answer: Its DC50 is 0.1 to 0.5 µM.

Question: What does the source list for CCc1cc(N2C(=S)N(c3cnc(C#N)c(C(F)(F)F)c3)C(=O)C2(C)C)ccc1OCCN1CCN(CC(=O)Nc2cc(Cl)cc(NC3CCC(=O)NC3=O)c2)[C@H](C)C1 (stereo partly drawn) [Example 145, N-(3-chloro-5-(2,6-dioxopiperidin-3-ylamino)phenyl)-2-((R)-4-(2-(4-(3-(6-cyano-5-(trifluoromethyl)pyridin-3-yl)-5,5-dimethyl-4-oxo-2-thioxoimidazolidin-1-yl)-2-ethylphenoxy)ethyl)-2-methylpiperazin-1-yl)acetamide]?
Answer: Y (AR degradation efficiency, % of DMSO control): * (0<Y<=25%); DC50: < 0.1 µM

Question: What does the source list for CCc1cc(N2C(=S)N(c3ccc(C#N)c(C(F)(F)F)c3)C(=O)C2(C)C)ccc1OCCN1C[C@@H](C)N(CC(=O)Nc2cc(C#N)cc(NC3CCC(=O)NC3=O)c2)[C@@H](C)C1 (stereo partly drawn) [Example 186, 2-((2S,6R)-4-(2-(4-(3-(4-cyano-3-(trifluoromethyl)phenyl)-5,5-dimethyl-4-oxo-2-thioxoimidazolidin-1-yl)-2-ethylphenoxy)ethyl)-2,6-dimethylpiperazin-1-yl)-N-(3-cyano-5-(2,6-dioxopiperidin-3-ylamino)phenyl)acetamide]?
Answer: Y (AR degradation efficiency, % of DMSO control): * (0<Y<=25%); DC50: < 0.1 µM

Question: With CC1(C)C(=O)N(c2cnc(C#N)c(C(F)(F)F)c2)C(=S)N1c1ccc(OCCN2CCN(CC(=O)Nc3cc(Cl)cc(NC4CCC(=O)NC4=O)c3)CC2)c(C2CC2)c1 (stereo not drawn) [Example 84, N-(3-chloro-5-(2,6-dioxopiperidin-3-ylamino)phenyl)-2-(4-(2-(4-(3-(6-cyano-5-(trifluoromethyl)pyridin-3-yl)-5,5-dimethyl-4-oxo-2-thioxoimidazolidin-1-yl)-2-cyclopropylphenoxy)ethyl)piperazin-1-yl)acetamide] as the compound, how does the “Y (AR degradation efficiency, % of DMSO control)” value read?
Answer: The value was “* (0<Y<=25%)”.

Question: And the DC50?
Answer: Its DC50 is under 0.1 µM.

Question: Which “Y (AR degradation efficiency, % of DMSO control)” value does the source give for CCc1cc(N2C(=S)N(c3ccc(C#N)c(C(F)(F)F)c3)C(=O)C23CCCCC3)ccc1OCCN1C[C@@H](C)N(CC(=O)Nc2cccc(NC3CCC(=O)NC3=O)c2)[C@@H](C)C1 (stereo partly drawn) [Example 264, 2-((2S,6R)-4-(2-(4-(3-(4-cyano-3-(trifluoromethyl)phenyl)-4-oxo-2-thioxo-1,3-diazaspiro[4.5]decan-1-yl)-2-ethylphenoxy)ethyl)-2,6-dimethylpiperazin-1-yl)-N-(3-(2,6-dioxopiperidin-3-ylamino)phenyl)acetamide] here?
Answer: Its value is “* (0<Y<=25%)”.

Question: And the DC50?
Answer: Its DC50 is under 0.1 µM.

Question: Which results are given for CC1(C)C(=O)N(c2ccc(C#N)c(C(F)(F)F)c2)C(=S)N1c1ccc(OCCN2CCN(CC(=O)Nc3cccc(NC4CCC(=O)NC4=O)c3)[C@H](C(F)(F)F)C2)c(C2CC2)c1 (stereo partly drawn) [Example 245, 2-((S)-4-(2-(4-(3-(4-cyano-3-(trifluoromethyl)phenyl)-5,5-dimethyl-4-oxo-2-thioxoimidazolidin-1-yl)-2-cyclopropylphenoxy)ethyl)-2-(trifluoromethyl)piperazin-1-yl)-N-(3-(2,6-dioxopiperidin-3-ylamino)phenyl)acetamide]?
Answer: Y (AR degradation efficiency, % of DMSO control): * (0<Y<=25%); DC50: < 0.1 µM

Question: With C[C@@H]1CN(CCOc2ccc(N3C(=S)N(c4cnc(C#N)c(C(F)(F)F)c4)C(=O)C3(C)C)cc2C2CC2)C[C@H](C)N1CC(=O)Nc1cccc(NC2CCC(=O)NC2=O)c1 (stereo partly drawn) [Example 235, 2-((2S,6R)-4-(2-(4-(3-(6-cyano-5-(trifluoromethyl)pyridin-3-yl)-5,5-dimethyl-4-oxo-2-thioxoimidazolidin-1-yl)-2-cyclopropylphenoxy)ethyl)-2,6-dimethylpiperazin-1-yl)-N-(3-(2,6-dioxopiperidin-3-ylamino)phenyl)acetamide] as the compound, how does the “Y (AR degradation efficiency, % of DMSO control)” value read?
Answer: The value was “* (0<Y<=25%)”.

Question: And the DC50?
Answer: Its DC50 is under 0.1 µM.

Question: What does the source list for CCc1c(OCCN2C[C@@H](C)N(CC(=O)Nc3cccc(NC4CCC(=O)NC4=O)c3)[C@@H](C)C2)ccc(N2C(=S)N(c3ccc(C#N)c(C(F)(F)F)c3)C(=O)C2(C)C)c1F (stereo partly drawn) [Example 271, 2-((2S,6R)-4-(2-(4-(3-(4-cyano-3-(trifluoromethyl)phenyl)-5,5-dimethyl-4-oxo-2-thioxoimidazolidin-1-yl)-2-ethyl-3-fluorophenoxy)ethyl)-2,6-dimethylpiperazin-1-yl)-N-(3-(2,6-dioxopiperidin-3-ylamino)phenyl)acetamide]?
Answer: Y (AR degradation efficiency, % of DMSO control): * (0<Y<=25%); DC50: < 0.1 µM

Question: Which “Y (AR degradation efficiency, % of DMSO control)” value does the source give for CC(C)c1cc(N2C(=S)N(c3cnc(C#N)c(C(F)(F)F)c3)C(=O)C2(C)C)ccc1OCCN1C[C@@H](C)N(CC(=O)Nc2cccc(NC3CCC(=O)NC3=O)c2)[C@@H](C)C1 (stereo partly drawn) [Example 180, 2-((2S,6R)-4-(2-(4-(3-(6-cyano-5-(trifluoromethyl)pyridin-3-yl)-5,5-dimethyl-4-oxo-2-thioxoimidazolidin-1-yl)-2-isopropylphenoxy)ethyl)-2,6-dimethylpiperazin-1-yl)-N-(3-(2,6-dioxopiperidin-3-ylamino)phenyl)acetamide] here?
Answer: The value was “* (0<Y<=25%)”.

Question: And the DC50?
Answer: The DC50 was under 0.1 µM.

Question: Which results are given for CCc1cc(N2C(=S)N(c3cnc(C#N)c(C(F)(F)F)c3)C(=O)C2(C)C)ccc1OCCN1CCN(CC(=O)Nc2cccc(NC3CCC(=O)NC3=O)c2)C2(CC2)C1 (stereo not drawn) [Example 99, 2-(7-(2-(4-(3-(6-cyano-5-(trifluoromethyl)pyridin-3-yl)-5,5-dimethyl-4-oxo-2-thioxoimidazolidin-1-yl)-2-ethylphenoxy)ethyl)-4,7-diazaspiro[2.5]octan-4-yl)-N-(3-(2,6-dioxopiperidin-3-ylamino)phenyl)acetamide]?
Answer: Y (AR degradation efficiency, % of DMSO control): * (0<Y<=25%); DC50: < 0.1 µM
